# From patent US8853219B2, “Compounds and compositions for cognition-enhancement, methods of making, and methods of treating” (NeuroSolis, Inc., priority 2010, dated 2014)
# Like-named read-outs stand apart in the source and are kept apart here.
# What was measured:
# [1] = system: inositol phosphate signaling pathway; assay: In vivo measurement of tissue inositol phosphate signaling pathway activation (hippocampus, salivary gland); details: rat, Compound 3 1 mg/kg
# Procedure: Experimental compounds or drug substances were administered using standard techniques to Long Evans Hooded rats weighing 225 to 350 grams, and which had been pretreated with a subcutaneous injection of lithium chloride at a suitable dose between 3 and 10 mmoles per kg. At suitable times the animals were briefly anesthetized using 5% isoflurane and euthanized by decapitation. The brains and submaxillary salivary glands were rapidly dissected out, and the hippocampuses were dissected from the brains. The dissected tissues were homogenized in a suitable volume of ice-cold phosphate-buffered saline containing 10 mM lithium chloride, pH7.4, using a tissue homogenizer, and used immediately or frozen in aliquots at −80 degC for future use. The concentration of inositol-1-phosphate was determined in the homogenates using the IPOne TR-FRET assay (CisBio cat no 621PAPEB), following the manufacturer's instruction
# rats = assay: Salivation after transdermal iontophoretic co-delivery of agonist and antagonist from one patch; type: in vivo, rat; details: anesthetized rats, device with 1 mg Compound 3 plus 0.01 mg antagonist
# Procedure: Experimental compounds and drug substances were delivered transdermally in rats using iontophoresis as follows. The fur was shaved from the backs of Long Evans Hooded rats weighing 225 to 325 grams, using electric clippers. Experimental compounds and drug substances were formulated at suitable concentrations an aqueous mixture of the following composition:
# The polyvinyl alcohol/water was heated to 95 degC until it became clear, then the other constituents were added and mixed well. The mixture was introduced into suitable molds containing a disc-shaped cavity 2.2 cm diameter and 2.2 mm deep. Molds may be fabricated using two glass sheets separated by a silicone rubber sheet with suitable sized cavities and filling ports cut-outs. The molds were subject to 3 freeze-thaw cycles at −80 degC and 20 degC until a firm cryogel was obtained. The gels were separated from the molds and trimmed into a circular shape. The gel was placed in a silicone rubber casing with one face in contact with a circular silver foil anodic electrode (22 mm dia/250 microns thick), and the assembly was placed on the shaved skin of the rat such that the other face was in contact with the skin on one side of the back of the rat. The rubber casing formed a seal over and around the gel/electrode assembly. […] This was placed on the other side of the shaved back of the rat, the edges of the gel discs being about 20 mm apart at their nearest point. A DC voltage was applied across the two patches from a constant-current DC power supply and the voltage adjusted to obtain the desired current, such that the skin of the animal completed the electrical circuit.
# The devices were placed on shaved backs of anesthetized rats and salivation was measured.
# (§1) The animals were placed slightly head-down on an inclined, heated ramp. Rectal temperature was monitored using a thermocouple and the temperature of the heating pad was adjusted manually to maintain normal body temperature. Saliva was collected from the mouth by absorption onto pre-weighed slips of filter paper. The filter paper was changed periodically and the amount of saliva was measured by weighing the filter paper slips.
# [2] = Immediate release capsules in healthy male volunteers: serum pharmacokinetics, metabolites, cholinergic side effects; type: in vivo, human
# Procedure: A single 5 mg capsule or 5×0.2 mg capsules (1 mg total dose) were administered orally to healthy male volunteer human subjects with 125 ml of water. Six such subjects receiving the 5 mg dose, and a different 6 subjects received the 1 mg dose.
# Subjects were monitored, among other things, for typical signs of muscarinic cholinergic action, such as increased salivation, lachrimation and diaphoresis. Venous blood samples were drawn at various intervals after dosing from each subject into standard tubes for bioanalytical and pharmacokinetic analysis. The blood was allowed to clot, and the serum separated, using common clinical laboratory techniques. Serum samples were stored at −20 deg C. until used for analysis.
# MCD-386HCl, which exists in serum principally as the protonated form of MCD-386, was assayed in clinical serum samples as follows. 200 μL aliquots of serum samples were spiked with 50.0 μL of diluent for subject samples and QC samples and 50 μL of the appropriate intermediate standard solution for standards. Twenty five microliters (25.0 μL) of working internal standard stock solution and 40.0 μL of 10 N sodium hydroxide was then added and the samples were vortex mixed. Three milliliters (3.00 mL) of ethyl acetate was added followed by 5 minutes of vigorous vortexing and centrifugation. The top organic layer was transferred to a clean tube, evaporated to dryness, and the sample was reconstituted with 100 μL of diluent (0.1% formic acid). A 10 μL aliquot of this reconstituted sample was injected into Phenomenex Synergy 4μ POLAR-RP, 75×2.0 mm (P/N 00C-4336-B0) on a Waters Acuity HPLC LC system, and eluted using a gradient of from 12% to 90% acetonitrile containing 0.1% formic acid/0.1% formic acid in water. The eluant flow of the LC was injected by Turbo Ion Spray (positive ion) into a Sciex API 4000 (Applied Biosystems). The MS/MS transitions monitored were 181.1 m/z to 111.0 m/z for MCD-386HCl and 186.1 m/z to 111.1 m/z for the internal standard, D5-MCD-386HCl. The calibration curve was linear between 0.100 ng/mL and 50.0 ng/mL for MCD-386HCl. The lower limit of quantitation (LLOQ) was 0.100 ng MCD-386HCl per mL of serum. MCD-386HCl concentrations are expressed as free base.
# The bioanalytical method for the extraction of metabolites from serum samples entailed adding 450 uL of a 90% acetonitrile+0.1% formic acid solution to 50 uL of the serum samples. The samples were vortexed and centrifuged at 16,000x g at 4° C. for 10 minutes. The supernatants were transferred to 3K molecular weight cut-off (MWCO) spin filters (Pall, Nanosep, #82031-346). Samples were filtered by centrifugation at 13,000×g at 4° C. for 20 minutes. The filtrates were transferred to a 96-well plate and sealed for LC/MS/MS analysis. The system used for this analysis was a Shimadzu Prominence HPLC system. […] The autosampler was maintained at 4° C. Injection volumes for all samples and standards were 40 uL. MRM methods for two possible metabolites were made. An API 3200 triple-quadrupole mass spectrometer with a Turbo V source (Applied Biosystems) was used, following commonly used procedures which would be readily set up by a person skilled in the art of LC-MS/MS. The counts of the characteristic parent and product ions of the free base metabolites were converted to concentration units by comparison with a standard calibration curve.
# The bioanalytical results were analyzed using Win Nonlin software and common pharmacokinetic methods known to those skilled in the art.
# Long Evans Hooded rats = assay: In vivo measurement of salivation; design: species or system rat; details: Compound 3 0.3 mg/kg
# Procedure: as §1, with “Suitable doses of test compounds or drug substances were administered using standard techniques to Long Evans Hooded rats weighing 225 to 350 grams, or CD-1 mice weighing 30 to 50 grams, which had been anesthetized using 2-3.5%% of isoflurane in oxygen. The animals” for “The animals”
# [3] = target: T1, human muscarinic M1 receptors (Homo sapiens, UniProt P11229); assay: Stimulation of inositol phosphate production in A9L cells, human M1 (IPOne TR-FRET); type: cell-based
# T1 construct: host or cells: A9L cells
# T1 sequence (P11229 1-460): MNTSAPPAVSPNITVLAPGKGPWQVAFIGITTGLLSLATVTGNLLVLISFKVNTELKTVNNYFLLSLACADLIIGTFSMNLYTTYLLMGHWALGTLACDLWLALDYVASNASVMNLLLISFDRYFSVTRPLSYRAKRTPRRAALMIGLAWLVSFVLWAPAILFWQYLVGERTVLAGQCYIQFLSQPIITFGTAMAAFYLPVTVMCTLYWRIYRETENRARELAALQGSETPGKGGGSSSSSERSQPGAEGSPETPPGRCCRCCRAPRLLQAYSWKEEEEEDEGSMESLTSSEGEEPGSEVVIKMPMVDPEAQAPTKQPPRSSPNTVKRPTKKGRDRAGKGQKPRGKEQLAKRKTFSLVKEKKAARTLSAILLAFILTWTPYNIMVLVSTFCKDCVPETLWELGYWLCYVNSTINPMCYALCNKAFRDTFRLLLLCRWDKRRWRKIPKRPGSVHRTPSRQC
# Procedure: (§2) Muscarinic M1 and M3 agonist activity was evaluated by measuring the stimulation of inositol phosphate (IP) production in the presence of lithium chloride from A9L cells transfected with expression plasmids containing human muscarinic M1 and M3 receptors, respectively. The cell lines were a gift from Professor W Messer, and the methods were as described in Tejada F R et al. J. Med. Chem. 2006; 49: 7518-31 except that the assay was scaled down to run in 384 well plates, and IP was measured in the cell lysates using the non-isotopic IPOne TR-FRET assay (CIS-BIO, Inc).
# (§3) Cells were grown to 90% confluence in 384 well hi-base plates (Greiner Bio-One), compounds were added at suitable concentrations in growth medium containing 10 mM LiCL, buffered with an extra 10 mM HEPES (pH7.4), and incubated for 60 minutes at 37° C. Cells were lysed and assayed for IP following the manufacturer's instructions.
# (§4) The value for a full agonist is 100%, while partial agonists give values below 100%.
# [4] = target: T2, human muscarinic M3 receptors (Homo sapiens, UniProt P20309); assay: Stimulation of inositol phosphate production in A9L cells, human M3 (IPOne TR-FRET); type: cell-based
# T2 construct: host or cells: A9L cells
# Procedure: as §2, §3, §4
# [5] = potency class relative to carbachol
# T2 sequence (P20309 whole entry): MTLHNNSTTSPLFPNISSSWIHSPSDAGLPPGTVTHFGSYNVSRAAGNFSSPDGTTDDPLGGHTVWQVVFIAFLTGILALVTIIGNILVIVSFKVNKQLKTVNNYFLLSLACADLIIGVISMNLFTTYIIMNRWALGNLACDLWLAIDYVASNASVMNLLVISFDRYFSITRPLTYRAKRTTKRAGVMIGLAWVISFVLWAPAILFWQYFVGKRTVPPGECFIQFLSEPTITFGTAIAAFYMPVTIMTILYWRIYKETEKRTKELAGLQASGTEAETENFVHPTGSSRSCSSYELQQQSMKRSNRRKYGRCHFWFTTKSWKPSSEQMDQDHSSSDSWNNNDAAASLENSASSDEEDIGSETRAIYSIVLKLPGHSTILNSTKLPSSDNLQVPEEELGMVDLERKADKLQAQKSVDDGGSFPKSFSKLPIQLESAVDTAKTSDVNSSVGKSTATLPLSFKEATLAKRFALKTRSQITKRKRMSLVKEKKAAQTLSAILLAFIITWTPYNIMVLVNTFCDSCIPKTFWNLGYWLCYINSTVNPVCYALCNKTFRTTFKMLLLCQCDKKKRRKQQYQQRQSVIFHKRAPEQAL
smiles,measurement,setting,value
CCN(CC)CC#CCOC(=O)C(O)(c1ccccc1)C1CCCCC1 (stereo not shown) [oxybutinin],Block of increase in salivary gland inositol phosphate caused by Compound 3,[1]; antagonist 0.1 mg/kg,less effective
same,Reduction of salivation caused by transdermal iontophoretic delivery of Compound 3,rats,"reduced salivation, but were less effective"
C[N+]1(C)CCC(OC(=O)C(O)(c2ccccc2)C2CCCC2)C1 (stereo not shown) [glycopyrrolate],Block of increase in hippocampal inositol phosphate caused by Compound 3,[1]; antagonist 0.03 mg/kg,without blocking
same,Block of increase in salivary gland inositol phosphate caused by Compound 3,[1]; antagonist 0.03 mg/kg,can block
same,Reduction of salivation caused by transdermal iontophoretic delivery of Compound 3,rats,greatly reduced
"CCc1noc(C2CN=CNC2)n1 (stereo not shown) [MCD-386HCl, 5-(3-ethyl-1,2,4-oxadiazol-5-yl)-1,4,5,6-tetrahydropyrimidine]",Observable cholinergic side effects,[2]; 1 mg total dose cohort,none of the subjects in the 1 mg total dose cohort experienced any observable cholinergic side effects
same,Diaphoresis,[2]; 5 mg cohort,"Two of these latter subjects experienced mild, transient diaphoresis that resolved within a short period, and two subjects experienced moderate diaphoresis"
same,Hypersalivation,[2]; 5 mg cohort,One of the latter subjects also experienced mild hypersalivation
same,Observable cholinergic side effects,[2]; 5 mg cohort,"two subjects experienced no observable side effects, and four subjects showed signs of muscarinic cholinergic activity"
same,Main metabolite in serum,[2]; 5 mg dose cohort,identified in the serum samples of five out of six subjects
Clc1cccc(Cl)c1N=C1NCCN1 [Clonidine],PAMPA units,,7.95
"C[N+]1(C)[C@@H]2C[C@@H](OC(=O)[C@H](CO)c3ccccc3)C[C@H]1[C@@H]1O[C@@H]12 [NMS, N-methylscopolamine]",Block of increase in salivary gland inositol phosphate caused by Compound 3,[1]; antagonist 0.003 mg/kg,some breakthrough activation
same,Block of increase in salivary gland inositol phosphate caused by Compound 3,[1]; antagonist 0.03 mg/kg to 0.01 mg/kg,nearly as effective as 0.1 mg/kg
same,Block of increase in salivary gland inositol phosphate caused by Compound 3,[1]; antagonist 0.1 mg/kg,completely block
same,Inhibition of increase in hippocampal inositol phosphate caused by Compound 3,[1]; antagonist 0.1 mg/kg,does not inhibit
same,Decrease in salivation caused by Compound 3,Long Evans Hooded rats,dose-dependent decrease in salivation
same,Reduction of salivation caused by transdermal iontophoretic delivery of Compound 3,rats,greatly reduced
CC(C)[N+](C)(CCOC(=O)C1c2ccccc2Oc2ccccc21)C(C)C [propantheline],Block of increase in hippocampal inositol phosphate caused by Compound 3,[1]; antagonist 0.03 mg/kg,without blocking
same,Block of increase in salivary gland inositol phosphate caused by Compound 3,[1]; antagonist 0.03 mg/kg,can block
same,Reduction of salivation caused by transdermal iontophoretic delivery of Compound 3,rats,greatly reduced
NC(=O)C(c1ccccc1)(c1ccccc1)[C@@H]1CCN(CCc2ccc3c(c2)CCO3)C1 [darifenacin],Block of increase in salivary gland inositol phosphate caused by Compound 3,[1]; antagonist 0.1 mg/kg,less effective
same,Reduction of salivation caused by transdermal iontophoretic delivery of Compound 3,rats,"reduced salivation, but were less effective"
"Cc1noc(C2CN3CCC2CC3)n1 (stereo not shown) [Compound 37, 3-methyl-5-(quinuclidin-3-yl)-1,2,4-oxadiazole, reference compound]",huM1/A9L ED50 relative to CCh,[3],++ (key: ++: potency > 10x CCh; +: potency 2-10x CCh; +/−: potency 0.5-2x CCh; −: potency < 0.5-0.1x CCh; −−: potency < 0.1x CCh; inactive: potency too low to determine)
same,Potency and efficacy at M1 muscarinic receptors,[3]; Table 12,highly potent
same,Selectivity for M1 versus M3 receptors,[3]; huM1/A9L versus huM3/A9L,essentially non-selective between M1 and M3 receptors
same,huM3/A9L ED50 relative to CCh,[4],++ (key: ++: potency > 10x CCh; +: potency 2-10x CCh; +/−: potency 0.5-2x CCh; −: potency < 0.5-0.1x CCh; −−: potency < 0.1x CCh; inactive: potency too low to determine)
same,PAMPA units,PAMPA test,3.02
CNC(=C[N+](=O)[O-])NCCSCc1ccc(CN(C)C)o1 [Ranitidine],PAMPA units,,0.26
"Cc1noc(C2(F)CCCNC2)n1 (stereo not shown) [Compound 35, 5-(3-fluoropiperidin-3-yl)-3-methyl-1,2,4-oxadiazole]",huM1/A9L ED50 relative to CCh,[3]; [5],− (potency < 0.5-0.1x CCh)
same,huM3/A9L ED50 relative to CCh,[4]; [5],−− (potency < 0.1x CCh)
same,PAMPA units,PAMPA test,16.3
